# According to US9359451B2, “Methods and compositions for treating trauma-hemorrhage using estrogen and derivatives thereof” (THE UAB RESEARCH FOUNDATION, priority 2012, dated 2016):
# “Also recorded” adds a separate entry of the source.
# What was measured:
# [1] = system: cardiac performance; assay: SPECT-CT of cardiac performance after severe hemorrhage; assay type: in vivo, rat; settings: FIG. 46
# Experimental: This was measured by SPECT-CT (single photon emission computed tomography-computed tomography) which enables the measurement of the volume of blood forced from the heart visualized through 3-D, real-time imaging (FIG. 46).
# [2] = system: hind limb motor function; assay: Spinal cord injury: grading of motor disturbance (modified BBB scale); assay type: in vivo, mouse; settings: every day for 10 days after SCI; pre or post treatment with 17β-estradiol; ICI 182,780: co-administered with 17β-estradiol
# Experimental: Mice were anaesthetized using chloral hydrate (400 mg/kg body weight) (Genovese 2006). A longitudinal incision was made on the midline of the back, exposing the paravertebral muscles. These muscles were dissected away exposing T5-T8 vertebrae. The spinal cord was exposed via a four-level T6-T7 laminectomy and SCI was produced by extradural compression using an aneurysm clip with a closing force of 24 g. Following surgery, 1 ml of saline was administered subcutaneously in order to replace the blood volume lost during surgery. During the surgery and recovery from anesthesia, the mice were placed on a warm heating pad and covered with a warm towel. […] Food and water were provided to the mice ad libitum. During this time period, the animals' bladders were manually voided twice a day until the mice were able to regain normal bladder function. In all injured groups, the spinal cord was compressed for 1 min. Sham-injured animals were only subjected to laminectomy. […] In the experiments regarding the motor score, the animals from all the experimental groups were observed and treated daily for 9 days after SCI. At different time points (see FIG. 30), the mice (n=10 from each group for each of the 3 time points) were sacrificed in order to evaluate the various parameters as described below. […] The motor function of mice subjected to compression trauma was assessed once a day for 10 days after injury. […]
# [3] = system: Splenocytes; assay: Splenocyte proliferation and cytokine release after trauma-hemorrhage (ex vivo, Con A); assay type: in vivo, mouse
# Experimental: Experimental groups. Ovariectomy was performed in female CBA/J mice 2 wk before trauma-hemorrhage using two dorsolateral incisions. […] Two weeks after ovariectomy, the animals were divided into four groups. Groups 1 and 2 consisted of sham-operated ovariectomized females, which were neither hemorrhaged nor resuscitated. Animals in groups 3 and 4 consisted of ovariectomized females, which were subjected to the trauma-hemorrhage procedure. Immediately before initiation of fluid resuscitation, animals in groups 1 and 3 received a subcutaneous injection of vehicle ([…] corn oil), and animals in groups 2 and 4 were treated with E2 ([…]/25 g body wt dissolved in […] corn oil). Each group consisted of 7-8 animals.
# Trauma-hemorrhage procedure. Mice in the trauma-hemorrhage groups were lightly anesthetized with methoxyflurane (Metofane; Pitman Moore, Mundelein, Ill.) and restrained in a supine position, and a 2.5-cm midline laparotomy (i.e., soft tissue trauma induced) was performed, which was then closed aseptically in two layers using 6-0 Ethilon sutures (Ethicon, Somerville, N.J.). Both femoral arteries were then aseptically cannulated with polyethylene-10 tubing (Clay-Adams, Parsippany, N.J.) using a minimal dissection technique, and the animals were allowed to awaken. Blood pressure was constantly monitored by attaching one of the catheters to a blood pressure analyzer (Micro-Med, Louisville, Ky.). Lidocaine was applied to the incision sites to provide analgesia during the study period. Upon awakening, the animals were bled through the other catheter to a mean arterial blood pressure of 35±5 mmHg (mean arterial blood pressure prehemorrhage was 95±5 mmHg), which was maintained for 90 min. At the end of that procedure, the animals were resuscitated with four times the shed blood volume in the form of lactated Ringer solution. The catheters were then removed, the vessels were ligated, and the groin incisions were closed. Sham-operated animals underwent the same surgical procedure, which included ligation of both femoral arteries, but neither hemorrhage nor fluid resuscitation was carried out. There was no mortality observed in this model of trauma-hemorrhage.
# Preparation of splenocyte culture. At 24 h after sham operation or trauma-hemorrhage and resuscitation, the spleens were removed aseptically and placed in separate petri dishes containing 4° C. phosphate-buffered saline (PBS) solution. Splenocytes were isolated as previously described in detail (Zellweger 1995). Briefly, the organs were gently ground between frosted microscope slides to produce a single cell suspension. This suspension was centrifuged at 300 g for 15 min. After resuspension, the erythrocytes were lysed hypotonically, and the remaining cells were washed with PBS by centrifugation (300 g, 15 min). Viability was tested using trypan blue exclusion and found to be ˜95% regardless of the group assessed. […] The ability of the splenocyte cultures to produce cytokines in response to a mitogenic challenge was assessed by incubation for 48 h (at 37° C., 5% CO2, and 90% humidity) in the presence of […] concanavalin A (Con A; Pharmacia/LKB Biotech, Piscataway, N.J.). […]
# Splenocyte proliferation. […] The cells' ability to proliferate in response to mitogenic stimulation with 0 (negative control) or […] Con A was measured by [^3H]thymidine incorporation technique as previously de scribed (Stephan 1987). […]
# [4] = system: ovariectomized female CBA/J mice; assay: Trauma-hemorrhage in ovariectomized female mice: plasma E2 and uterine wet weight; assay type: in vivo, mouse; settings: 24 h after E2 sc; sham operated or hemorrhaged, vs vehicle
# Experimental: To test this, ovariectomized female CBA/J mice were subjected to laparotomy (i.e., soft tissue trauma) and hemorrhagic shock (35±5 mmHg for 90 min, then resuscitated) or sham operation. […] Immune cells were isolated 24 h thereafter.
# Experimental groups. Ovariectomy was performed in female CBA/J mice 2 wk before trauma-hemorrhage using two dorsolateral incisions. […] Two weeks after ovariectomy, the animals were divided into four groups. Groups 1 and 2 consisted of sham-operated ovariectomized females, which were neither hemorrhaged nor resuscitated. Animals in groups 3 and 4 consisted of ovariectomized females, which were subjected to the trauma-hemorrhage procedure. […] Each group consisted of 7-8 animals.
# Trauma-hemorrhage procedure. […] Blood pressure was constantly monitored by attaching one of the catheters to a blood pressure analyzer (Micro-Med, Louisville, Ky.). […]
# Determination of plasma E2 concentration. E2 concentration was determined using a commercially available radio-immunoassay (ICN Biomedicals, Costa Mesa, Calif.) as described by the manufacturer.
# [5] = system: isolated vascular rings; assay: Vascular reactivity of isolated vascular rings in a physiological bath; parameters: species or system rat or pig; settings: antagonist added to EE-3-SO4
# Experimental: Data to delineate the mechanism of action for EE-3-SO4 vis-à-vis effects on the cardiovascular system was acquired. While it is well known that estrogens act on the vascular system by a variety of mechanisms including vasorelaxation per se, specific confirmation of this fact for EE-3-SO4 was needed. […] Vessels are contracted by a variety of agents (i.e., endothelin-1, phenylephrine). The action(s) are measured with a force transducer and recorded digitally. […] (see FIG. 42).
# [6] = 24 h after trauma-hemorrhage, Con A 48 h
smiles,measurement,setting,value
C[C@]12CC[C@@H]3c4ccc(O)cc4CC[C@H]3[C@@H]1CC[C@@H]2O [17β-estradiol],cardiac performance as ejection fraction (SPECT-CT),[1],substantially enhance cardiac performance as ejection fraction
same,hind limb motor disturbance (BBB score),[2],significant amelioration of hind limb motor disturbances; also recorded: reduces the motor disturbance after SCI
same,splenocyte IFN-γ release,[3]; [6],no depression of IFN-γ production was observed
same,splenocyte IL-2 production,[3]; [6],restored IL-2 productive capacity
same,splenocyte IL-3 release,[3]; [6],significantly improved splenocyte IL-3 release capacity
same,splenocyte proliferative capacity,"[3]; 24 h after trauma-hemorrhage, Con A, [3H]thymidine",no depression of splenocyte proliferative capacity was observed
same,splenocyte IL-10 production,[3]; after trauma-hemorrhage compared with E2-treated sham-operated animals,significantly reduced IL-10 production
same,uterine wet weight,[4],significantly increased
"C[C@]12CC[C@@H]3c4ccc(O)cc4C[C@@H](CCCCCCCCC[S+]([O-])CCCC(F)(F)C(F)(F)F)[C@H]3[C@@H]1CC[C@@H]2O (stereo partly shown) [ICI 182,780]",hind limb motor disturbance (BBB score),[2],significantly blocked the effect of the 17β-estradiol
same,antagonism of EE-3-SO4's vessel relaxation,[5],completely blocked
